# Source: US10344002B2, “Compositions and methods for treating metabolic disorders” (NuSirt Sciences, Inc., priority 2016, dated 2019)
# Experiments:
# C2C12 muscle cells = test: Fatty acid oxidation (oxygen consumption rate, Seahorse XF-24) in C2C12 muscle cells; format: cell-based; details: C2C12 muscle cells
# Method: Cell Culture: C2C12 muscle cells were seeded with 40,000 cells per well on Seahorse tissue culture plates in Dulbecco's modified eagle's medium (DMEM) containing 10% fetal bovine serum (FBS) and antibiotics (1% penicillin-streptomycin) at 37° C. in 5% CO2. After reaching confluency (24 hours), cells were induced to differentiate with DMEM containing 2% Horse Serum for 3 to 4 days until myotubes were fully formed. Cells were then treated with indicated concentration of Compound 2 for 24 hours.
# (§1) Compound 2 was dissolved in 100% DMSO to a stock concentration of 100 mM. This stock was further diluted to indicated concentrations in DMEM media.
# Fatty acid oxidation: Baseline and palmitate-stimulated oxygen consumption rates were measured with XF-24 analyzer (Seahorse Bioscience (now part of Agilent Technologies), MA, USA). After 24 hour treatment with Compound 2 of differentiated C2C12 muscle cells, cells were washed twice with non-buffered carbonate-free pH 7.4 low glucose (2.5 mM) DMEM containing carnitine (0.5 mM), equilibrated with 600 μl of the same media in a non-CO2 incubator for 45 minutes, and then inserted into the instrument for 15 minutes of further equilibration, followed by O2 consumption measurement. Three successive baseline measures at five-minute intervals were taken prior to injection of palmitate (200 μM final concentration). Sets of three five-minute intervals followed by 10-minute time delay were continued over a 2 to 3 hour period after palmitate injection. The area under the curve of 02 consumption change from baseline for each sample was then calculated and used for subsequent analysis. Data are represented as mean±SD for each treatment group.
# AMPK [1] = test: Western blot, phosphorylated/total AMPK in 3T3L1 adipocytes; format: cell-based; details: 48 hours; for ratio of phosphorylated/total AMPK (FIG. 5): control approximately 1.52
# Method: 3T3L1 adipocytes were seeded with 200,000 cells per well on 6-well tissue culture plates in Dulbecco's modified eagle's medium (DMEM) containing 10% fetal bovine serum (FBS) and antibiotics (1% penicillin-streptomycin) at 37° C. in 5% CO2. After reaching confluency (3 days), cells were induced to differentiate with a standard differentiation media (DM2-L1, Zen-Bio Inc., NC) for 3 days, then cells were maintained in DMEM (10% FBS, 1% penicillin-streptomycin) for another 11 days to induce lipid accumulation. Cells were then treated with indicated concentration of Compound 2 for 48 hours.
# as §1
# (§2) Western blots: Phospho-AMPK, AMPK, Phospho-ACC, ACC antibodies were obtained from Cell Signaling (Danvers, Mass.). Sir2 antibody was obtained from MyBiosource (San Diego, Calif.). Protein levels of cell extracts were measured by BCA kit (Thermo Scientific, Pittsburgh, Pa.). For Western blot, 10-50 μg protein was resolved on 4-15% gradient polyacrylaminde gels (Criterion precast gel, Bio-Rad Laboratories, Hercules, Calif.), transferred to either PVDF or nitrocellulose membranes, incubated in blocking buffer (3% BSA or 5% non-fat dry milk in TBS) and then incubated with primary antibody (1:1000 dilution), washed and incubated with horseradish peroxidase- or fluorescence-conjugated secondary antibody (1:10000 dilution). Visualization was conducted using BioRad ChemiDoc instrumentation and software (Bio-Rad Laboratories, Hercules, Calif.) and band intensity was assessed using Image Lab 4.0 with correction for background and loading controls.
# AMPK [2] = test: Western blot, P-AMPK/AMPK in C2C12 muscle cells; format: cell-based; details: 4 hours; for ratio of P-AMPK/AMPK (FIG. 6A): control approximately 0.75
# Method: (§3) Cell Culture: C2C12 muscle cells were seeded with 400,000 cells per well on 6-well tissue culture plates in Dulbecco's modified eagle's medium (DMEM) containing 10% fetal bovine serum (FBS) and antibiotics (1% penicillin-streptomycin) at 37° C. in 5% CO2. After reaching confluency (24 hours), cells were induced to differentiate with DMEM containing 2% Horse Serum for 5 to 6 days until myotubes were fully formed. Cells were then treated with indicated concentration of Compound 2 for 4 and 24 hours.
# as §1, §2
# [3] = test system: acetyl-CoA carboxylase (ACC); test: Western blot, phosphorylated/total acetyl-CoA carboxylase in C2C12 muscle cells; format: cell-based; details: for increase in the ratio of phosphorylated to total ACC: 24 h; for ratio of phosphorylated/total ACC (FIG. 6B): 24 hours, control approximately 1.25
# Method: as §3, §1, §2
# AMPK [4] = test: Western blot, P-AMPK/AMPK in C. elegans treated from L1 stage to adulthood; format: in vivo; details: for ratio of P-AMPK/AMPK (FIG. 7B): 3 days, control approximately 0.18
# Method: C. elegans culture: Synchronized L1 wild-type worms were transferred to NGM agar plates with the following treatments until adulthood (3 days): 1. control NGM plates, 2. NGM plate with 10 nM Compound 2 added to E. coli suspension, 3. NGM plate with 100 nM Compound 2 added to E. coli suspension.
# as §2
# adiponectin = test: Adiponectin gene expression (real-time PCR) in 3T3L1 adipocytes; format: cell-based; details: for adiponectin expression, fold change to control (FIG. 8): 48 hours
# Method: Cell Culture: 3T3L1 adipocytes were seeded with 20,000 cells per well on 96-well tissue culture plates in DMEM containing 10% FBS and 1% penicillin-streptomycin. After reaching confluency (3 days), cells were induced to differentiate with a standard differentiation media (DM2-L1, Zen-Bio Inc., NC) for 3 days, then cells were maintained in DMEM (10% FBS, 1% penicillin-streptomycin) for another 8 days to induce lipid accumulation. Cells were then treated with indicated concentration of Compound 2 for 48 hours.
# as §1
# Gene Expression: 3T3L1 adipocytes were grown and treated as described above. The medium was removed and the cells were washed with cold PBS. Cells Lysis, reverse transcription and real-time PCR was performed according to the instructions of the TaqMan® Gene Expression Cells-to-CT™ Kit manual (Life Technologies Inc, Cat #4399002). cDNA was probed with adiponectin and normalized to 18S.
# C. elegans = test: Lifespan of C. elegans under normal and mild oxidative stress (Paraquat) conditions; format: in vivo; details: for increase of median lifespan: 10 nM and 100 nM, p<0.0002
# Method: Lifespan Protocol: Wild-type worms were synchronized and hatched L1s were transferred to normal NGM agar plates until L4/young adult stage (3 days). 100 synchronized stage L4 worms per group were picked and placed on NGM agar plates seeded with E. coli strain OP-50 (=day 1 of study). Paraquat was added in the indicated concentration to the agar plates, the Compound 2 concentrations were dissolved in the E. coli suspension. The worms were maintained at 21° C. throughout the duration of the study. Live worms were placed on new plates every day to eliminate progeny.
# Statistics: For the statistical analysis of the lifespan study with C. elegans, data were analyzed via Kaplan-Meier survival curves and statistical significance between curves was determined with the Log-rank (Mantel_Cox) test using Prism 6 (GraphPad Software, La Jolla Calif., USA, www.graphpad.com).
# [5] = mild oxidative stress (500 uM Paraquat)
smiles,measurement,setting,value
CC(C)C[C@@H]1NC(N=C(N)N)=NC1=O [Compound 2],increase of the baseline oxygen consumption rate (area under the curve),"C2C12 muscle cells; 10 nM, 24 hour treatment, prior to palmitate injection, p=0.002",60%
same,further increase of palmitate-induced oxygen consumption vs control,"C2C12 muscle cells; after palmitate injection (200 μM), p=0.002",~75%
same,effect on baseline and palmitate-stimulated oxygen consumption rate (OCR),C2C12 muscle cells; concentrations in excess of luM (not shown),no effect
same,dose-response of OCR effects (area under the curve),C2C12 muscle cells; dose-responsive only at 0-10 nM,plateaued between 10 and 100 nM
same,dose-response on baseline and palmitate-stimulated OCR,C2C12 muscle cells; higher concentrations (>100 nM),diminishing responses
same,ratio of phosphorylated/total AMPK (FIG. 5),AMPK [1]; 10 nM,approximately 1.5
same,ratio of phosphorylated/total AMPK (FIG. 5),AMPK [1]; 100 nM,approximately 2.0
same,increase in the ratio of phosphorylated to total AMPK protein expression,"AMPK [1]; 100 nM, p=0.0004",35%
same,effect on the ratio of P-AMPK/AMPK,AMPK [2]; 10 nM,no effect
same,ratio of P-AMPK/AMPK (FIG. 6A),AMPK [2]; 10 nM,approximately 0.65
same,ratio of P-AMPK/AMPK (FIG. 6A),AMPK [2]; 100 nM,approximately 1.35
same,increase in the ratio of P-AMPK/AMPK,"AMPK [2]; 100 nM, p=0.03",78%
same,increase in the ratio of phosphorylated to total ACC,[3]; 10 nM,46%
same,ratio of phosphorylated/total ACC (FIG. 6B),[3]; 10 nM,approximately 1.8
same,increase in the ratio of phosphorylated to total ACC,[3]; 100 nM,21%
same,ratio of phosphorylated/total ACC (FIG. 6B),[3]; 100 nM,approximately 1.52
same,ratio of P-AMPK/AMPK (FIG. 7B),AMPK [4]; 10 nM,approximately 0.27
same,ratio of P-AMPK/AMPK (FIG. 7B),AMPK [4]; 100 nM,approximately 0.26
same,increase of P-AMPK/AMPK protein expression,"AMPK [4]; L1 stage to adulthood (3 days), p=0.06",approximately 50%
same,increase of adiponectin gene expression,"adiponectin; 10 nM and 100 nM, 48 hour treatment",approximately 35%
same,"adiponectin expression, fold change to control (FIG. 8)",adiponectin; 10 nM,approximately 1.35 fold change
same,"adiponectin expression, fold change to control (FIG. 8)",adiponectin; 100 nM,approximately 1.4 fold change
same,increase of maximum lifespan,C. elegans; [5],14%
same,increase of median lifespan,C. elegans; [5],30%
same,increase of median lifespan,C. elegans; normal conditions,18%
